Laboratory results published in US11945822B2, “Pyrazolo-triazine and/or pyrazolo-pxrimidine derivatives as selective inhibitor of cyclin dependent kinase” (QURIENT CO., LTD., priority 2018, dated 2024).

biological target: T1, CDK1/Cyclin B (Homo sapiens, UniProt P06493); experiment: Enzymatic assay for CDK1 (FRET based LANCE Ultra kinase assay); format: biochemical; conditions: read-out: CDK1 enzymatic activity (IC50 range)
T1 construct: purchased Invitrogen PR4768C
Procedure, shortened: (§1)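 TR-FRET (LANCE Ultra) kinase assay at ATP Km, ULight-MBP peptide substrate (68 nM), 8-dose 4-fold compound series in DMSO. Enzymes: […]; 60 min at 23° C., stopped with EDTA plus Eu-anti-phospho-MBP antibody, read 665/615 nm after 60 min.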

T1 sequence (P06493 whole entry): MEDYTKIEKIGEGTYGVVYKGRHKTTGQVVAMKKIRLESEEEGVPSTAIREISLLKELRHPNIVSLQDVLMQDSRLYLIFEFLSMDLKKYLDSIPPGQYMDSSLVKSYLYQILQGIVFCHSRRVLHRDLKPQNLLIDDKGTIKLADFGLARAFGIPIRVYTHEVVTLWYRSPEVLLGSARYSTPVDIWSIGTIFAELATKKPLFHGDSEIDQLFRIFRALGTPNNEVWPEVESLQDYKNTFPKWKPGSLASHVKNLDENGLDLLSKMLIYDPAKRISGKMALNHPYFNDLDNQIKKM
T1 sequence (P14635 whole entry partner): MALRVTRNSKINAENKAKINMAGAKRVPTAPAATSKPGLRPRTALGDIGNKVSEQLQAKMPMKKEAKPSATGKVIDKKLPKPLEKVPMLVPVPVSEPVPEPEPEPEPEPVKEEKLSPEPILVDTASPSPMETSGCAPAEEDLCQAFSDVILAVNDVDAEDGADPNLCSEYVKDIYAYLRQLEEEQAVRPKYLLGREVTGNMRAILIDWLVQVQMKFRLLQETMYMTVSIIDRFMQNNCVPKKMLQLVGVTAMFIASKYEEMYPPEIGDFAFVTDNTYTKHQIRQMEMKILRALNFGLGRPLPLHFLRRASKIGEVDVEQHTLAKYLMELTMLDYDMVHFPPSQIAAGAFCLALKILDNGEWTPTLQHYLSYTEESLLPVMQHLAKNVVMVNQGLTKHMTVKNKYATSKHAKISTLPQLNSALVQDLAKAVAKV

IC50 [nM]	Compound
100 to 1000	CCCc1ccccc1CNc1nc(N2CCC(N)CC2)nc2c(C(C)C)cnn12 [Compound 55]
> 1000	CC(C)c1cnn2c(NCc3ccccc3-n3cccn3)nc(N3CCN(C)CC3)nc12 [Compound 3]
> 1000	CC(C)c1cnn2c(NCc3ccccc3Oc3ccc4ccccc4n3)nc(N3CCC(N)CC3)nc12 [Compound 74]
> 1000	CC(C)c1cnn2c(NCc3cccc(Oc4ccccc4)c3)nc(N3CCC(N)CC3)nc12 [Compound 51]

biological target: T2, CDK2/Cyclin A (Homo sapiens, UniProt P24941); experiment: Enzymatic assay for CDK2 (FRET based LANCE Ultra kinase assay); format: biochemical; conditions: read-out: CDK2 enzymatic activity (IC50 range)
T2 construct: purchased Invitrogen PV6290
Procedure, shortened: as §1

IC50 [nM]	Compound
100 to 1000	CCCc1ccccc1CNc1nc(N2CCC(N)CC2)nc2c(C(C)C)cnn12 [Compound 55]
> 1000	CC(C)c1cnn2c(NCc3ccccc3-n3cccn3)nc(N3CCN(C)CC3)nc12 [Compound 3]
> 1000	CC(C)c1cnn2c(NCc3ccccc3Oc3ccc4ccccc4n3)nc(N3CCC(N)CC3)nc12 [Compound 74]
> 1000	CC(C)c1cnn2c(NCc3cccc(Oc4ccccc4)c3)nc(N3CCC(N)CC3)nc12 [Compound 51]

biological target: T3, CDK5/p25 (Homo sapiens, UniProt Q00535); experiment: Enzymatic assay for CDK5 (FRET based LANCE Ultra kinase assay); format: biochemical; conditions: read-out: CDK5 enzymatic activity (IC50 range)
T3 construct: purchased Invitrogen PR8543B
T3 sequence (Q00535 whole entry): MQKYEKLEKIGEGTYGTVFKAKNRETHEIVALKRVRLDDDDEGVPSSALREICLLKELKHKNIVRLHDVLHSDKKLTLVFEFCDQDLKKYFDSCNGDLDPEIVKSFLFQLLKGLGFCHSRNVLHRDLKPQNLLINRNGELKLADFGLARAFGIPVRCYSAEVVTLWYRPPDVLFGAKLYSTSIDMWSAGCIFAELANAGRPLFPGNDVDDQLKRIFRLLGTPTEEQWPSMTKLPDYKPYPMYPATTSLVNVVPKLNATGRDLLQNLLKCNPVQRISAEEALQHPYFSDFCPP
T3 sequence (Q15078 99-307 partner limits assumed): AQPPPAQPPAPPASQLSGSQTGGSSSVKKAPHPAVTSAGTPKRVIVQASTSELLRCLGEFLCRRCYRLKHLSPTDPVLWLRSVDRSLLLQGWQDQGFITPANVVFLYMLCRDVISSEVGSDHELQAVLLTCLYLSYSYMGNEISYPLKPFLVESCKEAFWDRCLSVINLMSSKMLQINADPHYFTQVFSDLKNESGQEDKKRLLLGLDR
Procedure, shortened: as §1

IC50 [nM]	Compound
100 to 1000	CCCc1ccccc1CNc1nc(N2CCC(N)CC2)nc2c(C(C)C)cnn12 [Compound 55]
100 to 1000	CC(C)c1cnn2c(NCc3ccccc3-n3cccn3)nc(N3CCN(C)CC3)nc12 [Compound 3]
100 to 1000	CC(C)c1cnn2c(NCc3ccccc3Oc3ccc4ccccc4n3)nc(N3CCC(N)CC3)nc12 [Compound 74]
> 1000	CC(C)c1cnn2c(NCc3cccc(Oc4ccccc4)c3)nc(N3CCC(N)CC3)nc12 [Compound 51]

biological target: T4, CDK7/Cyclin H/MNAT1 (Homo sapiens, UniProt P50613); experiment: Enzymatic assay for CDK7 (FRET based LANCE Ultra kinase assay); format: biochemical; conditions: CDK7 over CDK1
T4 construct: purchased Invitrogen PR6749B
T4 sequence (P50613 whole entry): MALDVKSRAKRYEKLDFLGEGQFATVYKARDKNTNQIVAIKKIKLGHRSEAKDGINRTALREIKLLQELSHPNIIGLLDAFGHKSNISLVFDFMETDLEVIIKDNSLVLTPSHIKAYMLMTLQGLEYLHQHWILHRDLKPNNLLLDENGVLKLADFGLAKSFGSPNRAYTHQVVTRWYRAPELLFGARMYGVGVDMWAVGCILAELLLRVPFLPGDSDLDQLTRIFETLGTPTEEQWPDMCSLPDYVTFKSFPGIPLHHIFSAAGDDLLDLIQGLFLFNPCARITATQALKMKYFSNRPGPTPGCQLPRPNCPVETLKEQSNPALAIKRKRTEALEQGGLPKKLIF
T4 sequence (P51946 whole entry partner): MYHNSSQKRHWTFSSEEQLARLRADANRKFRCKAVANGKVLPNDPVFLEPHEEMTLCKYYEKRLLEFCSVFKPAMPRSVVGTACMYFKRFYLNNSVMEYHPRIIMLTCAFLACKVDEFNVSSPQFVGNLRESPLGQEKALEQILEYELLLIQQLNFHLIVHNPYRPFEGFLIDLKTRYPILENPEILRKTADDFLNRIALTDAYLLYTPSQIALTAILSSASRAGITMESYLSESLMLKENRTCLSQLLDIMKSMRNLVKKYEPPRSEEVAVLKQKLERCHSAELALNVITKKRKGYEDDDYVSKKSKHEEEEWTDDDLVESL
T4 sequence (P51948 whole entry partner): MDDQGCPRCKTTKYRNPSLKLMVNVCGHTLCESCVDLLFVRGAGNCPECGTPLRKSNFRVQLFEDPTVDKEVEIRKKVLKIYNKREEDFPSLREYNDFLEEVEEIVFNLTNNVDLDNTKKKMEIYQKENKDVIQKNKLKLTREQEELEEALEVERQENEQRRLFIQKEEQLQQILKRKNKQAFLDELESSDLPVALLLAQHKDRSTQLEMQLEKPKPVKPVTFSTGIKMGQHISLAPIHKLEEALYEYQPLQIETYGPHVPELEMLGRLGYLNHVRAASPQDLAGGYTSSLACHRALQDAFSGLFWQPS
Procedure, shortened: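 LANCE Ultra TR-FRET kinase assay using a ULight-labeled peptide substrate and a Eu-labeled anti-phospho antibody, with ATP at its Km. Purified CDK/cyclin complex was added to compound after brief centrifugation.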

Compound	CDK1/CDK7: Selectivity of CDK7 inhibition over CDK1 inhibition
CCCc1ccccc1CNc1nc(N2CCC(N)CC2)nc2c(C(C)C)cnn12 [Compound 55]	B (B=less than 200 fold, but greater than 20 fold)
CC(C)c1cnn2c(NCc3ccccc3-n3cccn3)nc(N3CCN(C)CC3)nc12 [Compound 3]	A (A=greater than 200 fold)
CC(C)c1cnn2c(NCc3ccccc3Oc3ccc4ccccc4n3)nc(N3CCC(N)CC3)nc12 [Compound 74]	B (B=less than 200 fold, but greater than 20 fold)
CC(C)c1cnn2c(NCc3cccc(Oc4ccccc4)c3)nc(N3CCC(N)CC3)nc12 [Compound 51]	B (B=less than 200 fold, but greater than 20 fold)

same assay, conditions: CDK7 over CDK2

Compound	CDK2/CDK7: Selectivity of CDK7 inhibition over CDK2 inhibition
CCCc1ccccc1CNc1nc(N2CCC(N)CC2)nc2c(C(C)C)cnn12 [Compound 55]	B (B=less than 200 fold, but greater than 20 fold)
CC(C)c1cnn2c(NCc3ccccc3-n3cccn3)nc(N3CCN(C)CC3)nc12 [Compound 3]	B (B=less than 200 fold, but greater than 20 fold)
CC(C)c1cnn2c(NCc3ccccc3Oc3ccc4ccccc4n3)nc(N3CCC(N)CC3)nc12 [Compound 74]	B (B=less than 200 fold, but greater than 20 fold)
CC(C)c1cnn2c(NCc3cccc(Oc4ccccc4)c3)nc(N3CCC(N)CC3)nc12 [Compound 51]	B (B=less than 200 fold, but greater than 20 fold)

same assay, conditions: CDK7 over CDK5

Compound	CDK5/CDK7: Selectivity of CDK7 inhibition over CDK5 inhibition
CCCc1ccccc1CNc1nc(N2CCC(N)CC2)nc2c(C(C)C)cnn12 [Compound 55]	C (C=less than 20 fold)
CC(C)c1cnn2c(NCc3ccccc3-n3cccn3)nc(N3CCN(C)CC3)nc12 [Compound 3]	B (B=less than 200 fold, but greater than 20 fold)
CC(C)c1cnn2c(NCc3ccccc3Oc3ccc4ccccc4n3)nc(N3CCC(N)CC3)nc12 [Compound 74]	B (B=less than 200 fold, but greater than 20 fold)
CC(C)c1cnn2c(NCc3cccc(Oc4ccccc4)c3)nc(N3CCC(N)CC3)nc12 [Compound 51]	B (B=less than 200 fold, but greater than 20 fold)

same assay, conditions: read-out: CDK7 enzymatic activity (IC50 range)

IC50 [nM]	Compound
< 100	CCCc1ccccc1CNc1nc(N2CCC(N)CC2)nc2c(C(C)C)cnn12 [Compound 55]
< 100	CC(C)c1cnn2c(NCc3ccccc3-n3cccn3)nc(N3CCN(C)CC3)nc12 [Compound 3]
< 100	CC(C)c1cnn2c(NCc3ccccc3Oc3ccc4ccccc4n3)nc(N3CCC(N)CC3)nc12 [Compound 74]
< 100	CC(C)c1cnn2c(NCc3cccc(Oc4ccccc4)c3)nc(N3CCC(N)CC3)nc12 [Compound 51]

test system: HCT116; experiment: Cellular HCT116 viability assay (CellTiter-Glo, 72 hours); format: cell-based; conditions: Homo sapiens, HCT-116
Procedure, shortened: (§2)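 Steps: seed cells at per-line density; add compound, DMSO vehicle kept under 0.1% final; incubate 72 h, 37 °C, 5% CO2; lyse with CellTiter-Glo and read luminescence; run in duplicate.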

IC50 [nM]	Compound
1000 to 10000	CC(C)c1cnn2c(NCc3cccc(Oc4ccccc4)c3)nc(N3CCC(N)CC3)nc12 [Compound 51]

test system: H460; experiment: Cellular H460 viability assay (CellTiter-Glo, 72 hours); format: cell-based; conditions: Homo sapiens, NCI-H460
Procedure, shortened: as §2

IC50 [nM]	Compound
1000 to 10000	CCCc1ccccc1CNc1nc(N2CCC(N)CC2)nc2c(C(C)C)cnn12 [Compound 55]
1000 to 10000	CC(C)c1cnn2c(NCc3ccccc3-n3cccn3)nc(N3CCN(C)CC3)nc12 [Compound 3]
1000 to 10000	CC(C)c1cnn2c(NCc3ccccc3Oc3ccc4ccccc4n3)nc(N3CCC(N)CC3)nc12 [Compound 74]
1000 to 10000	CC(C)c1cnn2c(NCc3cccc(Oc4ccccc4)c3)nc(N3CCC(N)CC3)nc12 [Compound 51]

test system: MOLT-4; experiment: Cellular MOLT-4 viability assay (CellTiter-Glo, 72 hours); format: cell-based; conditions: Homo sapiens, MOLT4 viability assay
Description: All cell lines were routinely tested for mycoplasma.
The effect of the CDK7 inhibitor to inhibit the growth of target cancer cells was evaluated through the 72 hours time period of viability assay. Briefly, the candidate cell line ware plated in 96 well plate at the following density of cells respectively. […] DMSO solvent without compound served as a control and final DMSO concentration less than 0.1%. After 72 hours of incubation at 37° C., 5% CO2 incubator, cells were analyzed for the viability using the CellTiter-Glo Luminescent Cell Viability Assay (Promega, Cat #G7570). All viability assays were performed in duplicate and Luminescence was read using an Envision (Perkin Elmer, USA). Data was analyzed using XLfit software.

IC50 [nM]	Compound
1000 to 10000	CCCc1ccccc1CNc1nc(N2CCC(N)CC2)nc2c(C(C)C)cnn12 [Compound 55]
> 10000	CC(C)c1cnn2c(NCc3ccccc3-n3cccn3)nc(N3CCN(C)CC3)nc12 [Compound 3]
> 10000	CC(C)c1cnn2c(NCc3ccccc3Oc3ccc4ccccc4n3)nc(N3CCC(N)CC3)nc12 [Compound 74]
1000 to 10000	CC(C)c1cnn2c(NCc3cccc(Oc4ccccc4)c3)nc(N3CCC(N)CC3)nc12 [Compound 51]
